Patent publication US20050239733A1, “Sequence requirements for inhibitory oligonucleotides” (Coley Pharmaceutical GmbH, priority 2003, published 2005)

Columns and labels:
human TLR9 = target: T1, human TLR9 (Homo sapiens, UniProt Q9NR96); experiment: Inhibition of CpG ODN 2006-mediated NF-κB-luciferase activation in hTLR9-LUC-293 cells; settings: for Percent 2006 Activity: equimolar 0.156 μM CpG ODN 2006 and inhibitory ODN; for inhibitory for TLR9: general statement 'found according to the present invention', conditions not given
T1 sequence (Q9NR96 26-1032): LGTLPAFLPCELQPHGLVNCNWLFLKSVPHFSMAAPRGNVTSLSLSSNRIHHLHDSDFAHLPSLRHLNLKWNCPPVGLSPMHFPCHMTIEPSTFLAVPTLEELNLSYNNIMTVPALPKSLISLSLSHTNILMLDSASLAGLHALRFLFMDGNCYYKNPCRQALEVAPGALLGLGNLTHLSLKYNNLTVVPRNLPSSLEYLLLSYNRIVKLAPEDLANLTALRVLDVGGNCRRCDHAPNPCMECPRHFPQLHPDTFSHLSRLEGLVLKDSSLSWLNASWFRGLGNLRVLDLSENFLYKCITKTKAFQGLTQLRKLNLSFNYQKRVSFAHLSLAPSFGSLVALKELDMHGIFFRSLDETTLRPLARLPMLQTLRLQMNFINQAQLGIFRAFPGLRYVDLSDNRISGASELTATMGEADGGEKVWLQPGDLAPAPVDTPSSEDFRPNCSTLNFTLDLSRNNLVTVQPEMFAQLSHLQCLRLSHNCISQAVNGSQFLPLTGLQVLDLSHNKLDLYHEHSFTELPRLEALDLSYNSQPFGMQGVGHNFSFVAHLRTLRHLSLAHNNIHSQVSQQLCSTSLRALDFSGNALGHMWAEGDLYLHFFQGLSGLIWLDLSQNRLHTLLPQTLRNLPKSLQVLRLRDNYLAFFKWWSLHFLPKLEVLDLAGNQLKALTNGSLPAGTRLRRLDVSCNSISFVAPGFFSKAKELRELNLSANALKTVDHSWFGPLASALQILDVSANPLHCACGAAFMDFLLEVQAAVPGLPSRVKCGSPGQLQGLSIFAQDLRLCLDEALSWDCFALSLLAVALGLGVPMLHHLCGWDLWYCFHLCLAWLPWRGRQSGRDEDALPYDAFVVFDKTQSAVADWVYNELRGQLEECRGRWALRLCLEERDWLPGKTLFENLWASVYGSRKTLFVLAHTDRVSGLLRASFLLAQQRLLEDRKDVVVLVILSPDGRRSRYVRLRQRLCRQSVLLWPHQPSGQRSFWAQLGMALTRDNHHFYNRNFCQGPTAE

human TLR8 = target: T2, human TLR8 (Homo sapiens, UniProt Q9NR97); experiment: Inhibition of R-848-mediated NF-κB-luciferase activation in hTLR8-LUC-293 cells; type: cell-based; settings: for inhibitory for TLR8: general statement 'found according to the present invention', conditions not given
T2 construct: expressed in transfected cells
T2 sequence (Q9NR97 27-1041): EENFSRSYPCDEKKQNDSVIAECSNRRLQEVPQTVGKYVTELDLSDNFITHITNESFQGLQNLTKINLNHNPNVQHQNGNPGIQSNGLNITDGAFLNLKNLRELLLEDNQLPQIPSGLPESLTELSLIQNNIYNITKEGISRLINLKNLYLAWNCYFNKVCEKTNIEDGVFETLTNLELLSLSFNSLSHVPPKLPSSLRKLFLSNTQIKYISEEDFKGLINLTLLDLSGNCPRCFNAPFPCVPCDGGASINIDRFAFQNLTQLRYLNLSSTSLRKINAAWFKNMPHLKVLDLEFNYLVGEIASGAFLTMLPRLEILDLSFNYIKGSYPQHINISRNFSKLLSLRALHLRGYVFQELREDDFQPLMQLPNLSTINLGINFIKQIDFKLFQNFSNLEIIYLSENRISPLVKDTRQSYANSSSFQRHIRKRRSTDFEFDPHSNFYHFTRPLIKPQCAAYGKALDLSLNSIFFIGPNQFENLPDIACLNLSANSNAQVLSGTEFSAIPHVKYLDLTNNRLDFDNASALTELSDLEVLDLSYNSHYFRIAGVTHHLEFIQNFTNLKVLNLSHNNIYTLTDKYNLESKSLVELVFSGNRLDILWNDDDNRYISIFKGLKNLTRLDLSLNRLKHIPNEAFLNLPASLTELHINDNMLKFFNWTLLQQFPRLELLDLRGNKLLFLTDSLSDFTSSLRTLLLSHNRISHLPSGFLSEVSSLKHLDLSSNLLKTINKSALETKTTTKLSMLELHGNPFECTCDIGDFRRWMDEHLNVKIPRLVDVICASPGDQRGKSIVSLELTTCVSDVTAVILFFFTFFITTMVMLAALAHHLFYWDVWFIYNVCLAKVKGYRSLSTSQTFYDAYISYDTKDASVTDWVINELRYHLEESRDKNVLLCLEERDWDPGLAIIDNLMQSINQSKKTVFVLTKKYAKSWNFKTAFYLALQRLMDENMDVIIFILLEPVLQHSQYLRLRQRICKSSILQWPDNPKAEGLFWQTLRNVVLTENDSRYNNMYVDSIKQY
Experimental: The previous examples describe the ability of certain inhibitory ODN to inhibit activation of signal transduction mediated by human Toll-like receptor 9 (hTLR9). […] The assay system involved stimulating hTLR8-LUC-293 cells with the TLR8 ligand, R-848 (Resiquimod; Jurk M et al. (2002) Nat Immunol 3:499) in the presence and absence of ODN and comparing the induction of luciferase activity in the absence of ODN to luciferase activity in the presence of ODN.
Cells were assayed for luciferase activity 16 h later. Results were calculated as fold induction above medium background.
Luciferase activity was assayed after 16 h.
hTLR8-LUC-293 cells were incubated with 50 μM R-848 in the presence of increasing concentrations of the following ODN: ODN 2088, D13GT (whererin D is dSpacer), GTN13, N6GTN7, random 15-mer N15, N13GT, and the dinucleotide GT. Luciferase activity was assayed after 16 h. Luciferase activity of R-848 without any ODN was set to 100% (without correction for medium background, i.e. background activity of medium remained at approx. 17%).
Luciferase activity was assayed after 16 h. Luciferase activity of R-848 without any ODN was set to 100% (without correction for medium background, i.e., background activity of medium remained at approx. 17%).
In yet a further set of experiments hTLR8-LUC-293 cells were incubated with 50 μM R-848 in the presence of increasing amounts of different dinucleotides (GT, ODN 603; TG, ODN 688; GG, ODN 689; GU, ODN 690; UG, ODN 691; AT, ODN 692; and TT, ODN 693). Luciferase was assayed after 16 h. Luciferase activity of R-848 without any ODN was set to 100% and remaining R-848-mediated NF-κB activation in the presence of dinucleotides or ODN 2088 was calculated. Medium background was 17% in this set of experiments.
hTLR-LUC-293 cells (expressing the respective humanTLR7, TLR8, or TLR9) were incubated with constant amounts of TLR-agonist (for hTLR7: 2 μM R-848, for hTLR8: 50 μM R-848, and for hTLR9: 0.156 μM CpG ODN 2006) and increasing amounts of TLR-antagonist. […] To compare data for different TLRs, percent remaining activity of agonist was plotted against the log of molar ratio of antagonist to agonist (e.g., for hTLR8: 50 μM R-848 and 5 μM ODN, the plotted ratio is 10^−1). Used ODN concentrations were: for hTLR7 and hTLR8, 5 μM, 0.5 μM, 0.05 μM, and 0.005 μM, and for hTLR9, 2.5 μM, 0.156 μM, 0.0098 μM and 0.00061 μM.

human PBMC = experiment: Inhibition of CpG ODN 2395-induced IFN-α secretion by human PBMC; type: cell-based; settings: FIG. 9; 0.5 μM CpG ODN 2395, increasing ODN, 24 h
Experimental: In this set of experiments human PBMC were isolated from human blood and incubated in the presence of 0.5 μM CpG ODN 2395 ([…]; SEQ ID NO:30) and increasing concentrations of inhibitory ODN. CpG ODN 2395 induces high amounts of IFN-α in human PBMC through TLR9-mediated signaling. The secreted amount of IFN-α induced by CpG ODN 2395 after 24 h was set to 100%.

[1] = Table 3 (nucleotides flanking 5′ CC, truncations)
[2] = Table 2 (5′ CC replaced by other dinucleotides)

| Sequence | Percent 2006 Activity (human TLR9; [1]) [%] | inhibitory for TLR9 (human TLR9) | inhibitory for TLR8 (human TLR8) | further results |
| --- | --- | --- | --- | --- |
| ACCTGGCGGGGAAGT (DNA, backbone and methylation of C not given here) [ODN 941] | 11 | inhibitory | inhibitory | – |
| CCCTGGCGGGGAAGT (DNA, backbone and methylation of C not given here) [ODN 942] | 8 | inhibitory | inhibitory | – |
| CCTCAAGCTTGAGGGG [SEQ ID NO:13] | – | inhibitory | not for TLR8 | – |
| CCTTGTTGGG (DNA, backbone and methylation of C not given here) [ODN 223] | – | – | – | inhibition of IFN-α production in human PBMC, in words (human PBMC): inhibited |
| CTGGCGGGGAAGT (DNA, backbone and methylation of C not given here) [ODN 962] | 122 | – | – | inhibition of hTLR8 (R-848 activity), in words (human TLR8; 50 μM R-848, increasing ODN (up to 5 μM), 16 h): specific inhibition |
| GCCTGGCGGGGAAGT (DNA, backbone and methylation of C not given here) [ODN 940] | 13 | inhibitory | inhibitory | – |
| NNNNNNNNNNNNNGT [ODN 467] | – | – | – | inhibition of IFN-α production in human PBMC, in words (human PBMC): not |
| TCCCGGCGGGGAAGT (DNA, backbone and methylation of C not given here) [ODN 155] | 11 | inhibitory | inhibitory | – |
| TCCGGGCGGGGAAGT (DNA, backbone and methylation of C not given here) [ODN 156] | 10 | inhibitory | inhibitory | – |
| TCCTAGCGGGGAAGT (DNA, backbone and methylation of C not given here) [SEQ ID NO:10] | – | inhibitory | inhibitory | – |
| TCCTAGCGGGGGCGTCCTAT (chemistry not given here) [SEQ ID NO:12] | – | inhibitory | not for TLR8 | – |
| TCCTGGAGGGGAAGT (DNA, backbone and methylation of C not given here) [ODN 2114] | – | inhibitory | inhibitory | – |
| TCCTGTGTGTGTGTGTGTCGGGGAAGT (DNA, backbone and methylation of C not given here) [ODN 497, b = 13] | – | inhibitory | inhibitory | Percent 2006 Activity (human TLR9; Table 1 (length b / Spacer 18 variants)): 28% |
| TGATGGCGGGGAAGT (listed as DNA, chemistry not given here) [ODN 444] | – | – | inhibitory | Percent 2006 Activity (human TLR9; [2]): 96% |
| TGCTGGCGGGGAAGT (listed as DNA, chemistry not given here) [ODN 443] | – | – | inhibitory | Percent 2006 Activity (human TLR9; [2]): 91% |
| TGTTGGCGGGGAAGT (listed as DNA, chemistry not given here) [ODN 445] | – | – | inhibitory | Percent 2006 Activity (human TLR9; [2]): 97% |
